From patent US5294701A, “Anthracycline compounds and intermediates” (Pharmachemie B.V., priority 1990, dated 1994)
≈ marks a conversion by molar mass, not a printed value. Structures can show the parent of a compound that is named as a salt. Where two headings read alike, the source gives them in different places.

Assays:
Assay type in all cases: cell-based
[1] = test system: WiDr colon tumour cells (W-cells); assay: Inhibition of growth of human tumour cell line WiDr in vitro (PIT method of van Lambalgen and Lelieveld); conditions: read-out: ID50 values in ng/ml, WiDr (amount which inhibits 50% of the cell growth)
Method: (§1) A number of compounds were examined with the following human tumour cell lines according to the method of R. van Lambalgen and P. Lelieveld, "The PIT method: and automated in vitro technique for drug toxicity testing", Invest. New Drugs 5, 161-165, 1987.
WiDr colon tumour cells (W-cells)
(§2) The cell lines where maintained in a continuous logarithmic culture in Dulbeco's medium supplemented with 10% fetal calf serum, penicillin (100 IU/ml) and streptomycin (100 μg/ml).
(§3) The ID50 values of the above compounds, expressed in ng/ml, where determined according to the abovementioned method of van Lambalgen and Lelieveld. The ID50 value is the amount which inhibits 50% of the cell growth.

[2] = test system: MCF-7 mammary carcinoma cells (M-cells); assay: Inhibition of growth of human tumour cell line MCF-7 in vitro (PIT method of van Lambalgen and Lelieveld)
Method: as §1
MCF-7 mammary carcinoma cells (M-cells)
as §2, §3

[3] = test system: A 204 rhabdomyosarcoma (A-cells); assay: Inhibition of growth of human tumour cell line A 204 in vitro (PIT method of van Lambalgen and Lelieveld)
Method: as §1
A 204 rhabdomyosarcoma (A-cells)
as §2, §3

[4] = test system: IgR-37 melanoma cells (Z-cells); assay: Inhibition of growth of human tumour cell line IgR-37 in vitro (PIT method of van Lambalgen and Lelieveld)
Method: as §1
IgR-37 melanoma cells (Z-cells)
as §2, §3

[5] = test system: T 24 bladder carcinoma cells (T-cells); assay: Inhibition of growth of human tumour cell line T 24 in vitro (PIT method of van Lambalgen and Lelieveld)
Method: as §1
T 24 bladder carcinoma cells (T-cells)
as §2, §3

[6] = MCF7, read-out: ID50 values in ng/ml, MCF-7 (amount which inhibits 50% of the cell growth)
[7] = A204, read-out: ID50 values in ng/ml, A204 (amount which inhibits 50% of the cell growth)
[8] = IGR-37, read-out: ID50 values in ng/ml, IgR-37 (amount which inhibits 50% of the cell growth)
[9] = T24, read-out: ID50 values in ng/ml, T24 (amount which inhibits 50% of the cell growth)
[10] = MCF7, MCF-7 mammary carcinoma cells, read-out: ID50 values in ng/ml, MCF-7 (amount which inhibits 50% of the cell growth)
[11] = A204, A 204 rhabdomyosarcoma cells, read-out: ID50 values in ng/ml, A204 (amount which inhibits 50% of the cell growth)
[12] = IgR-37 melanoma cells, read-out: ID50 values in ng/ml, IgR-37 (amount which inhibits 50% of the cell growth)
[13] = T24, T 24 bladder carcinoma cells, read-out: ID50 values in ng/ml, T24 (amount which inhibits 50% of the cell growth)

SMILES | IC50 ([1]; WiDr colon tumour cells) [ng/mL] | IC50 [2, 10] [ng/mL] | IC50 [3, 11] [ng/mL] | IC50 [4, 12] [ng/mL] | IC50 [5, 13] [ng/mL] | IC50 ([1]; WiDr) [ng/mL] | IC50 [2, 6] [ng/mL] | IC50 [3, 7] [ng/mL] | IC50 [4, 8] [ng/mL] | IC50 [5, 9] [ng/mL]
COc1cccc2c1C(=O)c1c(O)c3c(c(O)c1C2=O)C[C@@](O)(C(=O)CO)C[C@@H]3O[C@H]1C[C@H](N)[C@H](O)[C@H](C)O1 [Adramycin.HCl, Adriamycin, reference compound] | – | – | – | – | – | 16 | 6 | 4 | 6 | 18
COc1cccc2c1C(=O)c1c(O)c3c(c(O)c1C2=O)C[C@@](O)(C(C)=O)C[C@@H]3O[C@H]1C[C@H](N)[C@H](O)[C@H](C)O1 [Daunomycin.HCl, Daunomycin, reference compound] | – | – | – | – | – | 3 | 1 | 1 | 1 | 4
COc1cc([C@@H]2c3cc4c(cc3[C@@H](O[C@@H]3O[C@@H]5CO[C@@H](C)O[C@H]5[C@H](O)[C@H]3O)[C@H]3COC(=O)[C@H]23)OCO4)cc(OC)c1O [Etoposide, reference compound] | – | – | – | – | – | 624 (≈ 1.06 µM) | 187 (≈ 0.318 µM) | 91 (≈ 0.155 µM) | 427 (≈ 0.725 µM) | 457 (≈ 0.776 µM)
C[C@@H]1O[C@@H](O[C@H]2C[C@](O)(C#C[Si](C)(C)C)Cc3c(O)c4c(c(O)c32)C(=O)c2ccccc2C4=O)C[C@H](NC(=O)C(F)(F)F)[C@@H]1O [HRM03] | – | – | – | – | – | 156 (≈ 0.241 µM) | 151 (≈ 0.233 µM) | 97 (≈ 0.15 µM) | 146 (≈ 0.225 µM) | 444 (≈ 0.686 µM)
C#C[C@]1(O)Cc2c(O)c3c(c(O)c2[C@@H](O[C@H]2C[C@H](N)[C@H](O)[C@H](C)O2)C1)C(=O)c1c(OC)cccc1C3=O [HRM12] | 87 (≈ 0.171 µM) | 39 (≈ 0.0765 µM) | 21 (≈ 0.0412 µM) | 63 (≈ 0.124 µM) | 140 (≈ 0.275 µM) | – | – | – | – | –
C#C[C@]1(O)CC2=C(C(=O)c3c(O)ccc(O)c3C2=O)[C@@H](O[C@H]2C[C@H](N)[C@H](O)[C@H](C)O2)C1 [HRM16] | 2120 (≈ 4.93 µM) | 338 (≈ 0.787 µM) | 280 (≈ 0.652 µM) | 1940 (≈ 4.51 µM) | 1260 (≈ 2.94 µM) | – | – | – | – | –

The next lines start with results.

IC50 ([1]; WiDr colon tumour cells) [ng/mL] | IC50 [2, 10] [ng/mL] | IC50 [3, 11] [ng/mL] | IC50 [4, 12] [ng/mL] | IC50 [5, 13] [ng/mL] | SMILES | IC50 ([1]; WiDr) [ng/mL] | IC50 [2, 6] [ng/mL] | IC50 [3, 7] [ng/mL] | IC50 [4, 8] [ng/mL] | IC50 [5, 9] [ng/mL]
4 (≈ 0.00834 µM) | 1 (≈ 0.00209 µM) | 0.3 (≈ 0.000626 µM) | 2 (≈ 0.00417 µM) | 2 (≈ 0.00417 µM) | C#C[C@]1(O)Cc2c(O)c3c(c(O)c2[C@@H](O[C@H]2C[C@H](N)[C@H](O)[C@H](C)O2)C1)C(=O)c1ccccc1C3=O [HRM01] | – | – | – | – | –
43 (≈ 0.0747 µM) | 14 (≈ 0.0243 µM) | 14 (≈ 0.0243 µM) | 18 (≈ 0.0313 µM) | 75 (≈ 0.13 µM) | C#C[C@]1(O)Cc2c(O)c3c(c(O)c2[C@@H](O[C@H]2C[C@H](NC(=O)C(F)(F)F)[C@H](O)[C@H](C)O2)C1)C(=O)c1ccccc1C3=O [HRM04] | – | – | – | – | –
501 (≈ 1.01 µM) | 745 (≈ 1.5 µM) | 302 (≈ 0.607 µM) | 618 (≈ 1.24 µM) | 1140 (≈ 2.3 µM) | CC(=O)[C@@]1(O)Cc2c(O)c3c(c(O)c2[C@H](O[C@H]2C[C@H](N)[C@H](O)[C@H](C)O2)C1)C(=O)c1ccccc1C3=O [HRM09, α-7.9-bis-epi-4-demethoxydaunomycin, reference compound] | – | – | – | – | –
372 (≈ 0.776 µM) | 420 (≈ 0.876 µM) | 243 (≈ 0.507 µM) | 469 (≈ 0.978 µM) | 728 (≈ 1.52 µM) | C#C[C@@]1(O)Cc2c(O)c3c(c(O)c2[C@H](O[C@H]2C[C@H](N)[C@H](O)[C@H](C)O2)C1)C(=O)c1ccccc1C3=O [HRM10] | – | – | – | – | –
139 (≈ 0.271 µM) | 67 (≈ 0.131 µM) | 45 (≈ 0.0878 µM) | 77 (≈ 0.15 µM) | 173 (≈ 0.338 µM) | CC(=O)C1(O)Cc2c(O)c3c(c(O)c2C(O[C@H]2C[C@H](N)[C@H](O)[C@H](C)O2)C1)C(=O)c1cc(C)cnc1C3=O (some centres unmarked) [HRM11] | – | – | – | – | –
1420 (≈ 3.18 µM) | 542 (≈ 1.21 µM) | 729 (≈ 1.63 µM) | 2440 (≈ 5.46 µM) | 1050 (≈ 2.34 µM) | CC(=O)[C@]1(O)CC2=C(C(=O)c3c(O)ccc(O)c3C2=O)[C@@H](O[C@H]2C[C@H](N)[C@H](O)[C@H](C)O2)C1 [HRM13] | – | – | – | – | –
779 (≈ 1.52 µM) | 334 (≈ 0.652 µM) | 171 (≈ 0.334 µM) | 459 (≈ 0.896 µM) | 949 (≈ 1.85 µM) | CC(=O)C1(O)Cc2c(O)c3c(c(O)c2C(O[C@H]2C[C@H](N)[C@H](O)[C@H](C)O2)C1)C(=O)c1ncc(C)cc1C3=O (some centres unmarked) [HRM15] | – | – | – | – | –
